Where two headings read alike, the source gives them in different places.
Legend:
[1] = test system: velvetleaf (Abutilon theophrasti MEDIC.); experiment: Foliar treatment pot test, visual growth inhibition rate, velvetleaf (AT); type: in vivo
Description: (§1) When the herbicidal activity in a case where two active ingredients are combined, is larger than the simple sum of the respective herbicidal activities of the two active ingredients (the expected activity), it is called a synergistic effect. The activity expected by the combination of two active ingredients can be calculated as follows (Colby S. R., “Weed”, vol. 15, p. 20-22, 1967). E=α+β−(α×β÷100) where
(§2) Upland field soil was put into a 1/1,000,000 hectare pot, and seeds of various plants (barnyardgrass (Echinochloa crus-qalli L.), crabgrass (Digitaria sanguinalis L.), giant foxtail (Setaria faberi Herrm.), velvetleaf (Abutilon theophrasti MEDIC.) and prickly sida (Sida spinosa L.)) were sown. When the respective plants reached predetermined leaf stage, herbicidal compositions in predetermined amounts were diluted with water in an amount corresponding to 300 L/ha and applied for foliar treatment by a small sprayer.
(§3) Further, in accordance with the above Colby's formula, the growth inhibition rate (calculated value) was calculated. In Tables, with respect to the compound Q, Compound Nos. in Table 1 are described, and with respect to other herbicidal compounds, common names are described. Further, in Tables, barnyardgrass is represented by “EC”, crabgrass by “DS”, giant foxtail by “SF”, velvetleaf by “AT”, and prickly sida by “SS”.

[2] = test system: crabgrass (Digitaria sanguinalis L.); experiment: Foliar treatment pot test, visual growth inhibition rate, crabgrass (DS); type: in vivo
Description: as §1, §2, §3

[3] = Abutilon theophrasti, foliar, 552 h, 3.0-3.5 leaf stage, 23 DAT, read-out: Growth inhibition rate (%) of AT Measured value
[4] = Digitaria sanguinalis, foliar, 552 h, 4.0-5.1 leaf stage, 23 DAT, read-out: Growth inhibition rate (%) of DS Measured value

With `O=C(O)COc1ccc(Cl)cc1Cl` [2,4-D] the “Growth inhibition rate (%) of AT Measured value” ([1]; 4.2-4.3 leaf stage, 20 DAT, 25 g/ha) was 45%.

Compound `CCc1cccc(CC)c1N(COC)C(=O)CCl` [Alachlor, alachlor] has an inhibition at 300 g/ha ([1]; Abutilon theophrasti, foliar, 504 h, 3.8-4.4 leaf stage, 21 DAT, read-out: Growth inhibition rate (%) of AT Measured value) of 0% and an inhibition at 300 g/ha ([2]; Digitaria sanguinalis, foliar, 504 h, 5.0-5.5 leaf stage, 21 DAT, read-out: Growth inhibition rate (%) of DS Measured value) of 10%.

In the case of `CC(C)N1C(=O)c2ccccc2NS1(=O)=O` [Bentazone-sodium, bentazone-sodium], the inhibition at 100 g/ha ([1]; Abutilon theophrasti, foliar, 528 h, 4.1-4.5 leaf stage, 22 DAT, 100 g/ha, read-out: Growth inhibition rate (%) of AT Measured value) is reported as 0%, the inhibition at 200 g/ha ([1]; Abutilon theophrasti, foliar, 552 h, 3.0-3.5 leaf stage, 23 DAT, 200 g/ha, read-out: Growth inhibition rate (%) of AT Measured value) is reported as 30% and the inhibition at 200 g/ha ([2]; Digitaria sanguinalis, foliar, 528 h, 4.0-5.0 leaf stage, 22 DAT, 200 g/ha, read-out: Growth inhibition rate (%) of DS Measured value) is reported as 0%. The inhibition at 200 g/ha ([2]; Digitaria sanguinalis, foliar, 552 h, 4.0-5.1 leaf stage, 23 DAT, 200 g/ha, read-out: Growth inhibition rate (%) of DS Measured value) was 0%.

`CCOC(=O)C(Cl)Cc1cc(-n2nc(C)n(C(F)F)c2=O)c(F)cc1Cl` (stereo not shown) [Carfentrazone-ethyl, carfentrazone-ethyl] gave an inhibition at 15 g/ha ([1]; Abutilon theophrasti, foliar, 336 h, read-out: Growth inhibition rate (%) of AT Measured value, 3.0-4.0 leaf stage, 14 DAT, 15 g/ha) of 98%, an inhibition at 7 g/ha ([1]; Abutilon theophrasti, foliar, 504 h, read-out: Growth inhibition rate (%) of AT Measured value, 3.0-3.5 leaf stage, 21 DAT, 7 g/ha) of 99% and an inhibition at 15 g/ha ([2]; Digitaria sanguinalis, foliar, 336 h, read-out: Growth inhibition rate (%) of DS Measured value, 4.0-5.0 leaf stage, 14 DAT, 15 g/ha) of 5%. For the same compound, the inhibition at 15 g/ha ([2]; Digitaria sanguinalis, foliar, 384 h, read-out: Growth inhibition rate (%) of DS Measured value, 4.0-5.0 leaf stage, 16 DAT, 15 g/ha) was 0%.

In the case of `O=C(O)c1nc(Cl)ccc1Cl` [Clopyralid, clopyralid], the inhibition at 300 g/ha ([1]; Abutilon theophrasti, foliar, 528 h, 4.1-4.5 leaf stage, 22 DAT, read-out: Growth inhibition rate (%) of AT Measured value) is reported as 40%, the inhibition at 300 g/ha [1, 3] is reported as 35% and the inhibition at 300 g/ha ([2]; Digitaria sanguinalis, foliar, 528 h, 4.0-5.0 leaf stage, 22 DAT, read-out: Growth inhibition rate (%) of DS Measured value) is reported as 0%. The inhibition at 300 g/ha [2, 4] was 0%.

Compound `CC(C)N(C(=O)COc1nnc(C(F)(F)F)s1)c1ccc(F)cc1` [Flufenacet] has an inhibition at 300 g/ha [1, 3] of 0%, an inhibition at 200 g/ha ([2]; Digitaria sanguinalis, foliar, 480 h, 5.0-5.2 leaf stage, 20 DAT, 200 g/ha, read-out: Growth inhibition rate (%) of DS Measured value) of 0% and an inhibition at 300 g/ha [2, 4] of 0%.

`CP(=O)(O)CCC(N)C(=O)O` (stereo not shown) [Glufosinate-ammonium, glufosinate-ammonium] showed an inhibition at 200 g/ha ([1]; Abutilon theophrasti, foliar, 528 h, read-out: Growth inhibition rate (%) of AT Measured value, 4.1-4.5 leaf stage, 22 DAT, 200 g/ha) of 10%, an inhibition at 200 g/ha ([1]; Abutilon theophrasti, foliar, 576 h, read-out: Growth inhibition rate (%) of AT Measured value, 3.2-4.1 leaf stage, 24 DAT, 200 g/ha) of 30% and an inhibition at 100 g/ha ([2]; Digitaria sanguinalis, foliar, 528 h, read-out: Growth inhibition rate (%) of DS Measured value, 4.0-5.0 leaf stage, 22 DAT, 100 g/ha) of 0%.

For `N.O=C(O)CNCP(=O)(O)O` [Glyphosate-ammonium, glyphosate-ammonium], the “Growth inhibition rate (%) of AT Measured value” ([1]; 3.5-4.3 leaf stage, 14 DAT, 100 g/ha) was 30%, the “Growth inhibition rate (%) of AT Measured value” ([1]; 3.5-4.3 leaf stage, 21 DAT, 200 g/ha) was 15% and the “Growth inhibition rate (%) of DS Measured value” ([2]; 5.0-5.5 leaf stage, 21 DAT, 100 g/ha) was 10%.

With `O=C(O)CNCP(=O)([O-])O.[K+]` [Glyphosate-potassium] the “Growth inhibition rate (%) of DS Measured value” ([2]; 4.0-4.2 leaf stage, 20 DAT, 62.5 g/ha) was 0%, the “Growth inhibition rate (%) of DS Measured value” ([2]; 4.0-4.2 leaf stage, 20 DAT, 125 g/ha) was 5% and the “Growth inhibition rate (%) of DS Measured value” ([2]; 4.0-4.2 leaf stage, 20 DAT, 250 g/ha) was 20%.

In the case of `COC(=O)c1c(Cl)nn(C)c1S(=O)(=O)NC(=O)Nc1nc(OC)cc(OC)n1` [Halosulfuron-methyl], the inhibition at 20 g/ha ([2]; Digitaria sanguinalis, foliar, 336 h, read-out: Growth inhibition rate (%) of DS Measured value, 5.0-5.5 leaf stage, 14 DAT, 20 g/ha) is reported as 0%.

`CON(C)C(=O)Nc1ccc(Cl)c(Cl)c1` [Linuron, linuron] gave an inhibition at 250 g/ha ([1]; Abutilon theophrasti, foliar, 336 h, 3.5-4.3 leaf stage, 14 DAT, read-out: Growth inhibition rate (%) of AT Measured value) of 85%, an inhibition at 250 g/ha ([1]; Abutilon theophrasti, foliar, 576 h, 3.2-4.1 leaf stage, 24 DAT, read-out: Growth inhibition rate (%) of AT Measured value) of 40% and an inhibition at 250 g/ha ([2]; Digitaria sanguinalis, foliar, 336 h, 5.0-5.5 leaf stage, 14 DAT, 250 g/ha, read-out: Growth inhibition rate (%) of DS Measured value) of 30%.

For `CCOC(=O)OC(C)Oc1c(C(=O)c2ccc(S(C)(=O)=O)c(OCCOC)c2C)cnn1C` (stereo not shown) [NO. 2], the “Growth inhibition rate (%) of AT Measured value” ([1]; 4.0-4.3 leaf stage, 22 DAT, 3.75 g/ha) was 0%.

With `CCC(CC)Nc1c([N+](=O)[O-])cc(C)c(C)c1[N+](=O)[O-]` [Pendimethalin, pendimethalin] the inhibition at 100 g/ha ([1]; Abutilon theophrasti, foliar, 312 h, 3.3-4.2 leaf stage, 13 DAT, 100 g/ha, read-out: Growth inhibition rate (%) of AT Measured value) was 25%, the inhibition at 125 g/ha ([1]; Abutilon theophrasti, foliar, 480 h, 4.2-4.3 leaf stage, 20 DAT, 125 g/ha, read-out: Growth inhibition rate (%) of AT Measured value) was 20% and the inhibition at 250 g/ha ([1]; Abutilon theophrasti, foliar, 480 h, 4.2-4.3 leaf stage, 20 DAT, read-out: Growth inhibition rate (%) of AT Measured value) was 38%. For the same compound, the inhibition at 62.5 g/ha ([2]; Digitaria sanguinalis, foliar, 480 h, 4.5-5.2 leaf stage, 20 DAT, 62.5 g/ha, read-out: Growth inhibition rate (%) of DS Measured value) was 0%, the inhibition at 125 g/ha ([2]; Digitaria sanguinalis, foliar, 480 h, 4.5-5.2 leaf stage, 20 DAT, 125 g/ha, read-out: Growth inhibition rate (%) of DS Measured value) was 0% and the inhibition at 250 g/ha ([2]; Digitaria sanguinalis, foliar, 480 h, 4.5-5.2 leaf stage, 20 DAT, 250 g/ha, read-out: Growth inhibition rate (%) of DS Measured value) was 0%.

With `CCOCCN(C(=O)CCl)C(=C(C)C)c1ccccc1` [Pethoxamid, pethoxamid] the “Growth inhibition rate (%) of AT Measured value” ([1]; 3.3-4.2 leaf stage, 13 DAT, 200 g/ha) was 0%, the “Growth inhibition rate (%) of DS Measured value” ([2]; 3.6-3.8 leaf stage, 20 DAT, 100 g/ha) was 0% and the “Growth inhibition rate (%) of DS Measured value” ([2]; 3.6-3.8 leaf stage, 20 DAT, 200 g/ha) was 0%. For the same compound, the “Growth inhibition rate (%) of DS Measured value” ([2]; 3.6-3.8 leaf stage, 20 DAT, 400 g/ha) was 0% and the “Growth inhibition rate (%) of DS Measured value” ([2]; 4.4-5.0 leaf stage, 13 DAT, 200 g/ha) was 0%.

For `CCc1cc(C)cc(CC)c1-c1c(OC(=O)C(C)(C)C)n2n(c1=O)CCOCC2` [Pinoxaden], the inhibition at 25 g/ha ([1]; Abutilon theophrasti, foliar, 504 h, AT 4.0-4.3 leaf stage, 21 DAT, active ingredient 25 g/ha, read-out: Growth inhibition rate (%) of AT Measured value) was 0%, the inhibition at 50 g/ha ([1]; Abutilon theophrasti, foliar, 504 h, AT 4.0-4.3 leaf stage, 21 DAT, active ingredient 50 g/ha, read-out: Growth inhibition rate (%) of AT Measured value) was 0% and the inhibition at 100 g/ha ([1]; Abutilon theophrasti, foliar, 504 h, AT 4.0-4.3 leaf stage, 21 DAT, active ingredient 100 g/ha, read-out: Growth inhibition rate (%) of AT Measured value) was 0%. It also gave an inhibition at 25 g/ha ([2]; Digitaria sanguinalis, foliar, 504 h, 4.0-5.1 leaf stage, 21 DAT, 25 g/ha, read-out: Growth inhibition rate (%) of DS Measured value) of 70%, an inhibition at 50 g/ha ([2]; Digitaria sanguinalis, foliar, 504 h, 4.0-5.1 leaf stage, 21 DAT, 50 g/ha, read-out: Growth inhibition rate (%) of DS Measured value) of 90% and an inhibition at 100 g/ha ([2]; Digitaria sanguinalis, foliar, 504 h, 4.0-5.1 leaf stage, 21 DAT, 100 g/ha, read-out: Growth inhibition rate (%) of DS Measured value) of 70%.

With `CS(=O)(=O)c1ccc(C(=O)C2C(=O)CCCC2=O)c(Cl)c1` [sulcotrione] the inhibition at 25 g/ha ([1]; Abutilon theophrasti, foliar, 480 h, read-out: Growth inhibition rate (%) of AT Measured value, 4.0-4.2 leaf stage, 20 DAT, 25 g/ha) was 40%, the inhibition at 50 g/ha ([1]; Abutilon theophrasti, foliar, 480 h, read-out: Growth inhibition rate (%) of AT Measured value, 4.0-4.2 leaf stage, 20 DAT, 50 g/ha) was 60% and the inhibition at 100 g/ha ([1]; Abutilon theophrasti, foliar, 480 h, read-out: Growth inhibition rate (%) of AT Measured value, 4.0-4.2 leaf stage, 20 DAT, 100 g/ha) was 95%.

From patent US8492310B2, “Herbicidal compositions containing benzoylpyrazole compounds” (priority 2008, dated 2013)
